Measurements from ChEMBL document CHEMBL4680294, “Synthesis of nature product kinsenoside analogues with anti-inflammatory activity” (Bioorg Med Chem, 2021).
One block for each molecule: values may come before it. Activity calls are given as the source filed them. The rule behind the calls is not given here.

Columns and labels:
RAW264.7 [1] = experiment: Antiinflammatory activity against mouse RAW 264.7 cells assessed as inhibition of LPS-induced NO production incubated for 24 hrs by Griess assay; type: functional, cell-based; conditions: RAW264.7, 24 h
RAW264.7 [2] = experiment: Cytotoxicity against mouse RAW 264.7 cells incubated for 24 hrs by MTT assay; type: cell-based; conditions: raw264.7, 24 h
RAW264.7 [3] = experiment: Antiinflammatory activity against mouse RAW 264.7 cells assessed as inhibition of LPS-induced translocation into nucleus at 50 uM by preincubated for 1 hr followed by LPS addition measured after 16 hrs by immunofluorescence assay; type: functional, cell-based; conditions: time 17.0 hrs
RAW264.7 [4] = experiment: Antiinflammatory activity against mouse RAW 264.7 cells assessed as inhibition of LPS-induced IL-6 mRNA level at 50 uM preincubated for 1 hr followed by LPS addition measured after 16 hrs by RT-PCR analysis; type: functional, cell-based; conditions: time 17.0 hrs
RAW264.7 [5] = experiment: Antiinflammatory activity against mouse RAW 264.7 cells assessed as inhibition of LPS-induced COX2 production at 50 uM preincubated for 1 hr followed by LPS addition measured after 16 hrs by Western blot analysis; type: functional, cell-based; conditions: time 17.0 hrs
RAW264.7 [6] = experiment: Antiinflammatory activity against mouse RAW 264.7 cells assessed as inhibition of LPS-induced iNOS production at 50 uM preincubated for 1 hr followed by LPS addition measured after 16 hrs by Western blot analysis; type: functional, cell-based; conditions: time 17.0 hrs
RAW264.7 [7] = experiment: Antiinflammatory activity against mouse RAW 264.7 cells assessed as inhibition of LPS-induced NO production at 50 uM incubated for 24 hrs by Griess assay relative to control; type: functional
RAW264.7 [8] = experiment: Antiinflammatory activity against mouse RAW 264.7 cells assessed as inhibition of LPS-induced TNF-alpha mRNA level at 50 uM preincubated for 1 hr followed by LPS addition measured after 16 hrs by RT-PCR analysis; type: functional, cell-based; conditions: time 17.0 hrs
RAW264.7 [9] = experiment: Antiinflammatory activity against mouse RAW 264.7 cells assessed as inhibition of LPS-induced IL-1beta mRNA level at 50 uM preincubated for 1 hr followed by LPS addition measured after 16 hrs by RT-PCR analysis; type: functional, cell-based; conditions: time 17.0 hrs
RAW264.7 [10] = experiment: Antiinflammatory activity against mouse RAW 264.7 cells assessed as inhibition of LPS-induced IL-1alpha mRNA level at 50 uM preincubated for 1 hr followed by LPS addition measured after 16 hrs by RT-PCR analysis; type: functional, cell-based; conditions: time 17.0 hrs
RAW264.7 [11] = experiment: Antiinflammatory activity against mouse RAW 264.7 cells assessed as inhibition of LPS-induced IkappaB-alpha level preincubated for 1 hr followed by LPS addition measured after 16 hrs by Western blot analysis; type: functional, cell-based; conditions: time 17.0 hrs
RAW264.7 [12] = experiment: Antiinflammatory activity against mouse RAW 264.7 cells assessed as inhibition of LPS-induced TNF-alpha mRNA level upto 50 uM preincubated for 1 hr followed by LPS addition measured after 16 hrs by RT-PCR analysis; type: functional, cell-based; conditions: dose microM <=50, time 17.0 hrs
RAW264.7 [13] = experiment: Antiinflammatory activity against mouse RAW 264.7 cells assessed as inhibition of LPS-induced IL-1beta mRNA level upto 50 uM preincubated for 1 hr followed by LPS addition measured after 16 hrs by RT-PCR analysis; type: functional, cell-based; conditions: dose microM <=50, time 17.0 hrs
RAW264.7 [14] = experiment: Antiinflammatory activity against mouse RAW 264.7 cells assessed as inhibition of LPS-induced IL-1alpha mRNA level upto 50 uM preincubated for 1 hr followed by LPS addition measured after 16 hrs by RT-PCR analysis; type: functional, cell-based; conditions: dose microM <=50, time 17.0 hrs
RAW264.7 [15] = experiment: Antiinflammatory activity against mouse RAW 264.7 cells assessed as inhibition of LPS-induced […] p-p65 level preincubated for 1 hr followed by LPS addition measured after 16 hrs by Western blot analysis; type: functional, cell-based; conditions: time 17.0 hrs
RAW264.7 [16] = experiment: Antiinflammatory activity against mouse RAW 264.7 cells assessed as inhibition of LPS-induced IL-6 mRNA level upto 50 uM preincubated for 1 hr followed by LPS addition measured after 16 hrs by RT-PCR analysis; type: functional, cell-based; conditions: dose microM <=50, time 17.0 hrs
RAW264.7 [17] = experiment: Antiinflammatory activity against mouse RAW 264.7 cells assessed as inhibition of LPS-induced iNOS production preincubated for 1 hr followed by LPS addition measured after 16 hrs by Western blot analysis; type: functional, cell-based; conditions: time 17.0 hrs
RAW264.7 [18] = experiment: Antiinflammatory activity against mouse RAW 264.7 cells assessed as inhibition of LPS-induced COX2 production preincubated for 1 hr followed by LPS addition measured after 16 hrs by Western blot analysis; type: functional, cell-based; conditions: time 17.0 hrs
RAW264.7 [19] = experiment: Antiinflammatory activity against mouse RAW 264.7 cells assessed as inhibition of LPS-induced translocation into nucleus upto 50 uM by preincubated for 1 hr followed by LPS addition measured after 16 hrs by immunofluorescence assay; type: functional, cell-based; conditions: dose microM <=50, time 17.0 hrs

Structure (SMILES): O=C1C[C@@H](O[C@H]2O[C@H](CO)[C@@H](O)[C@H](O)[C@@H]2O)CN1
IC50 (RAW264.7 [1]): 108 µM

Structure (SMILES): O=C(NO)c1ccc(O)c(O)c1
inhibition (RAW264.7 [3]): Active
inhibition (RAW264.7 [4]): Active
inhibition (RAW264.7 [5]): Active
inhibition (RAW264.7 [6]): Active
inhibition at 50 µM (RAW264.7 [7]): 70%
inhibition (RAW264.7 [8]): Active
inhibition (RAW264.7 [9]): Active
inhibition (RAW264.7 [10]): Active

Structure (SMILES): C[C@@H]1O[C@@H](O[C@H]2CNC(=O)C2)[C@H](O)[C@H](O)[C@H]1O
IC50 (RAW264.7 [1]): 116 µM

Structure (SMILES): C[C@@H]1O[C@@H](O[C@@H]2CNC(=O)C2)[C@H](O)[C@H](O)[C@H]1O
IC50 (RAW264.7 [1]): 66.9 µM

Structure (SMILES): O=C1C[C@H](O[C@H]2O[C@H](CO)[C@@H](O)[C@H](O)[C@H]2O)CN1
IC50 (RAW264.7 [1]): 80.9 µM

Structure (SMILES): C[C@@H]1O[C@@H](O[C@H]2CC(=O)N(Cc3ccccc3)C2)[C@H](O)[C@H](O)[C@H]1O
IC50 (RAW264.7 [1]): 69.7 µM

Structure (SMILES): O=C1C[C@@H](O[C@H]2O[C@H](CO)[C@@H](O)[C@H](O)[C@@H]2O)CN1Cc1ccccc1
IC50 (RAW264.7 [1]): 97.2 µM

Structure (SMILES): O=C1C[C@@H](O[C@H]2O[C@H](CO)[C@@H](O)[C@H](O)[C@H]2O)CN1
IC50 (RAW264.7 [1]): 89 µM

Structure (SMILES): O=C1C[C@H](O[C@H]2O[C@H](CO)[C@H](O)[C@H](O)[C@H]2O)CO1
IC50 (RAW264.7 [1]): 66.5 µM

Structure (SMILES): O=C1C[C@H](O[C@H]2O[C@H](CO)[C@@H](O)[C@H](O)[C@@H]2O)CN1
IC50 (RAW264.7 [1]): 67.1 µM

Structure (SMILES): O=C1C[C@H](O[C@H]2O[C@H](CO)[C@@H](O)[C@H](O)[C@H]2O)CO1
IC50 (RAW264.7 [1]): 91.3 µM

Structure (SMILES): O=C1C[C@H](O[C@H]2O[C@H](CO)[C@@H](O)[C@H](O)[C@H]2O)CN1Cc1ccccc1
IC50 (RAW264.7 [1]): 105 µM

Structure (SMILES): O=C1C[C@@H](O[C@H]2O[C@H](CO)[C@@H](O)[C@H](O)[C@H]2O)CN1Cc1ccccc1
IC50 (RAW264.7 [1]): 72.5 µM

Structure (SMILES): O=C1C[C@H](O[C@H]2O[C@H](CO)[C@@H](O)[C@H](O)[C@@H]2O)CN1Cc1ccccc1
IC50 (RAW264.7 [1]): 64 µM

More lines, in order of falling IC50 (RAW264.7 [1]), values ahead:

IC50 (RAW264.7 [1]): 60.7 µM
Structure (SMILES): C[C@@H]1O[C@@H](O[C@@H]2COC(=O)C2)[C@H](O)[C@H](O)[C@H]1O

IC50 (RAW264.7 [1]): 56 µM
Structure (SMILES): C[C@@H]1O[C@@H](O[C@@H]2CC(=O)N(Cc3ccccc3)C2)[C@H](O)[C@H](O)[C@H]1O

IC50 (RAW264.7 [1]): 42.9 µM
Structure (SMILES): O=C1C[C@@H](O[C@H]2O[C@H](CO)[C@@H](O)[C@H](O)[C@@H]2O)CO1
Activity (RAW264.7 [2]): Non-Toxic

IC50 (RAW264.7 [1]): 41.9 µM
Structure (SMILES): O=C1C[C@@H](O[C@@H]2O[C@H](CO)[C@@H](O)[C@H](O)[C@H]2O)CO1
Activity (RAW264.7 [2]): Non-Toxic

IC50 (RAW264.7 [1]): 41.5 µM
Structure (SMILES): O=C1C[C@@H](O[C@@H]2O[C@H](CO)[C@H](O)[C@H](O)[C@H]2O)CO1
Activity (RAW264.7 [2]): Non-Toxic

IC50 (RAW264.7 [1]): 41.2 µM
Structure (SMILES): C[C@@H]1O[C@@H](O[C@H]2COC(=O)C2)[C@H](O)[C@H](O)[C@H]1O
Activity (RAW264.7 [2]): Non-Toxic

IC50 (RAW264.7 [1]): 38.7 µM
Structure (SMILES): O=C1C[C@H](O[C@H]2O[C@H](CO)[C@@H](O)[C@H](O)[C@@H]2O)CO1
Activity (RAW264.7 [2]): Non-Toxic

IC50 (RAW264.7 [1]): 27.9 µM
Structure (SMILES): O=C1C[C@H](O[C@@H]2O[C@H](CO)[C@@H](O)[C@H](O)[C@H]2O)CO1 [GOODYEROSIDE]
inhibition (RAW264.7 [11]): Active
inhibition (RAW264.7 [12]): Active
inhibition (RAW264.7 [13]): Active
inhibition (RAW264.7 [14]): Active
inhibition (RAW264.7 [15]): Active
inhibition (RAW264.7 [16]): Active
inhibition (RAW264.7 [17]): Dose-dependent effect
inhibition (RAW264.7 [18]): Dose-dependent effect
Activity (RAW264.7 [2]): Non-Toxic
inhibition (RAW264.7 [19]): Active
